Source: the NIST ThermoML archive (doi:10.1021/je049893r)

Conditions: Liquid, Vibrating tube method

CCCCOCCOCCO [3,6-dioxa-1-decanol]
mass density [kg/m3]
Conditions | 100 kPa | 1000 kPa | 2500 kPa | 5000 kPa | 7500 kPa | 10000 kPa | 15000 kPa | 20000 kPa | 25000 kPa
283.15 K | 960.5 | 961 | 961.9 | 963.4 | 964.9 | 966.3 | 969.1 | 971.8 | 974.4
293.15 K | 952.2 | 952.7 | 953.7 | 955.2 | 956.7 | 958.2 | 961.1 | 963.9 | 966.7
303.15 K | 943.8 | 944.3 | 945.3 | 946.9 | 948.5 | 950.1 | 953.1 | 956.1 | 959
313.15 K | 935.3 | 935.9 | 936.9 | 938.6 | 940.3 | 941.9 | 945.1 | 948.2 | 951.2
323.15 K | 926.6 | 927.2 | 928.3 | 930.1 | 931.8 | 933.5 | 936.9 | 940.1 | 943.2
333.15 K | 917.8 | 918.5 | 919.7 | 921.6 | 923.4 | 925.2 | 928.7 | 932 | 935.2
343.15 K | 909.7 | 910.4 | 911.6 | 913.6 | 915.5 | 917.4 | 921.1 | 924.6 | 928
353.15 K | 900.9 | 901.7 | 903 | 905 | 907.1 | 909.1 | 912.9 | 916.6 | 920.1

CCCOCC(C)O (centres undefined) [1-propoxy-2-propanol]
mass density [kg/m3]
Conditions | 100 kPa | 1000 kPa | 2500 kPa | 5000 kPa | 7500 kPa | 10000 kPa | 15000 kPa | 20000 kPa | 25000 kPa
283.15 K | 895.1 | 895.7 | 896.7 | 898.5 | 900.1 | 901.8 | 905 | 908.1 | 911.1
293.15 K | 886 | 886.6 | 887.7 | 889.6 | 891.3 | 893.1 | 896.5 | 899.8 | 902.9
303.15 K | 876.4 | 877.2 | 878.4 | 880.3 | 882.2 | 884 | 887.6 | 891.1 | 894.4
313.15 K | 866.9 | 867.6 | 868.9 | 871 | 873 | 875 | 878.8 | 882.4 | 885.9
323.15 K | 857.2 | 858 | 859.3 | 861.4 | 863.5 | 865.6 | 869.6 | 873.5 | 877.2
333.15 K | 847.1 | 847.9 | 849.3 | 851.7 | 853.9 | 856.1 | 860.3 | 864.3 | 868.1
343.15 K | 837.5 | 838.4 | 840 | 842.4 | 844.9 | 847.2 | 851.8 | 856 | 860.1
353.15 K | 827.3 | 828.3 | 829.9 | 832.6 | 835.2 | 837.7 | 842.5 | 847 | 851.3
